Our source for the EC50 and inhibition values is patent US10703748B2, “Diazanaphthalen-3-yl carboxamides and preparation and use thereof” (Samumed, LLC, priority 2017, dated 2020).

The subject of assay [1] is secreted cytokines TNFα, IL-6 and KC-GRO. Description: Secreted cytokines in Lipopolysaccharide-stimulated BV-2 cells (Table 9 does not say which cytokine). The conditions noted are these: Mus musculus, BV-2, 5 h; read-out: EC50. Format: cell-based, mouse.
For assay [2], the target named is GSK3β kinase (Homo sapiens, UniProt P49841). Nature of the assay: GSK3β kinase activity (Ser/Thr 09 peptide Z-lyte FRET assay). Format: biochemical. The conditions noted are these: recombinant kinase, 46 μM ATP, one hour at room temperature; read-out: EC50.
Sequence of GSK3β kinase (P49841 whole entry): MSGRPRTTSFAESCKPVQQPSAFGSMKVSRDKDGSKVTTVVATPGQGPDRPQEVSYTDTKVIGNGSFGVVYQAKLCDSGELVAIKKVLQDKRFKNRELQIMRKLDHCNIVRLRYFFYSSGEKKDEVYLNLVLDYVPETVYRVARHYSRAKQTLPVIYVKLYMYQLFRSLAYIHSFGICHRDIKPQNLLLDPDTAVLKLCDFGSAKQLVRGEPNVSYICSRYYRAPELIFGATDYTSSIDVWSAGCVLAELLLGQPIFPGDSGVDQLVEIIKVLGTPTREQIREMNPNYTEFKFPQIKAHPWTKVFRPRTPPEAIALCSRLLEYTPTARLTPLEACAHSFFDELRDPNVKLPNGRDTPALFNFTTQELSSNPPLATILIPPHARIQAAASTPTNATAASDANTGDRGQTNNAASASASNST
Assay [3] relates to SW480 colon carcinoma cells. Nature of the assay: Cell viability assay (CellTiter-Glo). The following applies: Homo sapiens; for EC50: SW480, 96 h; for inhibition at 10 µM: SW480, read-out: percent inhibition at 10 μM.
In assay [4] the test system is IL-6. Nature of the assay: IL-6 inhibition in LPS-stimulated human peripheral blood mononuclear cells (HTRF). The following applies: Homo sapiens, PBMC; for EC50: 22 h; for inhibition at 10 µM: read-out: percentage in parentheses after EC50 >10. Background: In TR-FRET formats the signal depends on donor and acceptor labels being close together.
The target in assay [5] is DYRK1A kinase (Homo sapiens, UniProt Q13627). Nature of the assay: DYRK1A kinase activity (Ser/Thr 18 peptide Z-lyte FRET assay).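 Note: kinase activity read as coumarin/fluorescein emission ratio after development step, with unphosphorylated and phosphorylated peptide forms setting 0% and 100% controls, values from dose-response curves.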 Format: biochemical. The following applies: recombinant DYRK1A, 30 μM ATP, one hour at room temperature.
Assay [6] relates to Tau phosphorylation at Ser396 (pSer396). Description: Tau phosphorylation at Ser396 (pSer396) in SH-SY5Y cells, ELISA / western blot.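 Note: decrease in pSer396 Tau measured in lysates of treated cells by colorimetric ELISA or chemiluminescent western blot, same pSer396 antibody for both.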 Format: cell-based, human. The conditions noted are these: Homo sapiens; SH-SY5Y cells, overnight (16-18 h); read-out: pSer396 Tau EC50. (In an ELISA, binding on a coated surface is turned into a signal by an enzyme label.)
Experimental: Two days before treatment, cells were seeded onto 96 well plates at 5×10^4 cells/well.
The above synthesized compounds were screened using the cell assay procedure to assess decrease Tau phosphorylation at Ser396 (pSer396) described below.
Cells were lysed with RIPA buffer complemented with phosphatase and protease inhibitors then lysates were spun down at 12,000 g for 10 min to remove any cellular debris.
Assay [7] concerns α-smooth muscle actin (aSMA) positive LL29 cells. Nature of the assay: Inhibition of the fibrotic process: αSMA staining in TGF-β1 treated LL29 fibroblasts from IPF patients. The conditions noted are these: Homo sapiens, Fibroblast; for EC50: 96 h; for inhibition at 10 µM: read-out: percentage in parentheses after EC50 >10.
Experimental: Each compound was dissolved in DMSO as a 10 mM stock and used to prepare compound source plates. […] LL29 cells were plated at 1,500 cells/well in 70 μL/well F12 medium supplemented with 1% Fetal Bovine Serum. […] Wells treated with TGF-β1 and containing DMSO were used as positive control, and cells with only DMSO were negative control. Cells were incubated at 37° C. and 5% CO2 for 4 days. Following incubation for 4 days, SYTOX green nucleic acid stain (Life Technologies [Thermo Fisher Scientific]) was added to the wells at a final concentration of 1 μM and incubated at room temperature for 30 min. Cells were then fixed using 4% formaldehyde (Electron Microscopy Sciences), washed 3 times with PBS followed by blocking and permeabilization using 3% Bovine Serum Albumin (BSA; Sigma) and 0.3% Triton X-100 (Sigma) in PBS.
Assay [8] relates to Wnt-responsive Sp5-Luc reporter in SW480 colon carcinoma cells. Description: Screening assay for Wnt activity (Sp5-Luc reporter gene assay). The conditions noted are these: Homo sapiens; for EC50: SW480; for inhibition at 10 µM: SW480, read-out: percent inhibition at 10 μM.

One may read the EC50 as the concentration at which the effect is half-maximal.

Take `Cc1ncc(-c2ccc3cnc(NC(=O)[C@H]4CC[C@H](N(C)C)CC4)cc3n2)s1` [Compound 4559, trans-4-(Dimethylamino)-N-(2-(2-methylthiazol-5-yl)-1,6-naphthyridin-7-yl) cyclohexane-1-carboxamide]: the EC50 in assay [1] is 411 nM; in assay [2], 110 nM; in assay [3] it was more than 10000 nM; in assay [4], 8500 nM; in assay [5], 14 nM; in assay [6] it was 2400 nM. The 50% effective concentration (EC50) is 589 nM in assay [7] and more than 10000 nM in assay [8]. Also, the inhibition at 10 µM in assay [3] is 44.8%; in assay [8], 40.8%.
Regarding `CN1CCC(N(C)c2cc(C(=O)Nc3ncc4ccc(-c5cn(C)nn5)cc4n3)ccn2)CC1` [Compound 1288, 2-(Methyl(1-methylpiperidin-4-yl)amino)-N-(7-(1-methyl-1H-1,2,3-triazol-4-yl)quinazolin-2-yl)isonicotinamide], the EC50 in assay [1] is 6100 nM; in assay [2], 177 nM; in assay [3], 1090 nM; in assay [4] it was more than 10000 nM; in assay [5], 6 nM; in assay [6], 10000 nM. Moreover, the EC50 amounted to 8010 nM in assay [7] and 59 nM in assay [8]. In assay [4], the inhibition at 10 µM worked out at 9.8%.
Regarding `Cn1cncc1-c1cc2cc(NC(=O)c3ccc4c(c3)CNC4)ncc2cn1` [Compound 4104, N-(6-(1-Methyl-1H-imidazol-5-yl)-2,7-naphthyridin-3-yl)isoindoline-5-carboxamide], the EC50 in assay [1] is 1200 nM; in assay [2], 145 nM; in assay [3], 7750 nM; in assay [4], more than 10000 nM; in assay [5], 3 nM; in assay [6], 10000 nM. The EC50 in assay [7] was 3080 nM; in assay [8] it was more than 10000 nM. The inhibition at 10 µM in assay [4] came to 5.7%; in assay [8], 41.3%.
For the molecule `O=C(Nc1cc2nc(-c3cccnc3)ccc2cn1)C1CC1` [Compound 764, N-(2-(Pyridin-3-yl)-1,6-naphthyridin-7-yl)cyclopropanecarboxamide], the EC50 was 5100 nM in assay [1]; 243 nM in assay [2]; more than 10000 nM in assay [3]; more than 10000 nM in assay [4]; 8 nM in assay [5]; 807 nM in assay [6]. Besides, the EC50 in assay [7] and in assay [8] was more than 10000 nM in each case. Besides, the inhibition at 10 µM in assay [3] turned out to be 24.7%; in assay [4], 4.3%; in assay [7], 5.8%; in assay [8], 27.5%.
For `Cn1cc(-c2ccc3cnc(NC(=O)[C@H]4CC[C@H](N5CCOCC5)CC4)cc3n2)cn1` [Compound 5, trans-N-(2-(1-methyl-1H-pyrazol-4-yl)-1,6-naphthyridin-7-yl)-4-morpholinocyclohexane-1-carboxamide], the EC50 in assay [1] is 400 nM; in assay [2], 138 nM; in assay [3], more than 10000 nM; in assay [4], 3300 nM; in assay [5], 7 nM; in assay [6], 2000 nM. The EC50 in assay [7] and in assay [8] was more than 10000 nM throughout. Also, the inhibition at 10 µM in assay [3] worked out at 39.9%; in assay [7] it was 9%; in assay [8], 47.9%.
For `O=C(Nc1cc2nc(-c3cncs3)ccc2cn1)[C@H]1CC[C@H](CN2CC(F)C2)CC1` [Compound 613, trans-4-((3-Fluoroazetidin-1-yl)methyl)-N-(2-(thiazol-5-yl)-1,6-naphthyridin-7-yl)cyclohexane-1-carboxamide], the half-maximal effective concentration (EC50) in assay [1] came to 106 nM; in assay [2], 219 nM; in assay [3], 3600 nM; in assay [4], 1100 nM; in assay [5] it was 3 nM; in assay [6], 157 nM. The values for the EC50 in assay [7] and in assay [8] were 650 nM and 8810 nM, respectively.
With `Cn1cc(-c2ccc3cnc(NC(=O)CN4CCOCC4)nc3c2)cn1` [Compound 985, N-(7-(1-Methyl-1H-pyrazol-4-yl)quinazolin-2-yl)-2-morpholinoacetamide], the EC50 in assay [1] was more than 10000 nM; in assay [2] it was 35 nM; in assay [3], more than 10000 nM; in assay [4], more than 10000 nM; in assay [5], 126 nM; in assay [6], 5400 nM. Moreover, the EC50 in assay [7] and in assay [8] was more than 10000 nM each time. For the same molecule, the inhibition at 10 µM in assay [3] worked out at 9.6%; in assay [4], 3.2%; in assay [7] it was 51.7%; in assay [8] it was 5.5%.
In the case of `Cn1cc(-c2ccc3cnc(NC(=O)[C@H]4CC[C@H](N)CC4)cc3n2)cn1` [Compound 41, trans-4-amino-N-(2-(1-methyl-1H-pyrazol-4-yl)-1,6-naphthyridin-7-yl)cyclohexane-1-carboxamide], the EC50 is 408 nM in assay [1]; 429 nM in assay [2]; more than 10000 nM in assay [3]; 2770 nM in assay [4]; 10 nM in assay [5]; more than 10000 nM in assay [6]. The EC50 in assay [7] was 663 nM; in assay [8], 1310 nM. The inhibition at 10 µM in assay [3] stood at 31.8%.
As for `Cc1ncc(-c2ccc3cnc(NC(=O)[C@H]4CC[C@H](CO)CC4)cc3n2)s1` [Compound 4558, trans-4-(Hydroxymethyl)-N-(2-(2-methylthiazol-5-yl)-1,6-naphthyridin-7-yl) cyclohexane-1-carboxamide], the concentration for a half-maximal effect (EC50) stood at 165 nM in assay [1]; 100 nM in assay [2]; 5800 nM in assay [3]; 9230 nM in assay [4]; 4 nM in assay [5]; 7000 nM in assay [6]. The EC50 in assay [7] is 277 nM; in assay [8] it was 2800 nM.
As for `Cc1ncc(C(=O)Nc2cc3nc(-c4cnc(C)n4C)ccc3cn2)s1` [Compound 447, N-(2-(1,2-Dimethyl-1H-imidazol-5-yl)-1,6-naphthyridin-7-yl)-2-methylthiazole-5-carboxamide], the 50% effective concentration (EC50) in assay [1] worked out at 83 nM; in assay [2], 48 nM; in assay [3], 165 nM; in assay [4] it was 4250 nM; in assay [5] it was 1 nM; in assay [6] it was 562 nM. For the same molecule, the EC50 in assay [7] was found to be 517 nM; in assay [8], 107 nM.
For `Cn1cncc1-c1ccc2cnc(NC(=O)c3ccc4c(c3)CNC4)cc2n1` [Compound 477, N-(2-(1-Methyl-1H-imidazol-5-yl)-1,6-naphthyridin-7-yl)isoindoline-5-carboxamide], the EC50 in assay [1] amounted to 4800 nM; in assay [2], 84 nM; in assay [3], 1690 nM; in assay [4] it was 9830 nM; in assay [5] it was 1 nM; in assay [6], 10000 nM. In addition, the results for the EC50 in assay [7] and in assay [8] were 632 nM and 962 nM, respectively.
Turning to `Cn1cc(-c2cc3cc(NC(=O)CC4CNCCO4)ncc3cn2)cn1` (stereo not drawn) [Compound 3714, N-(6-(1-Methyl-1H-pyrazol-4-yl)-2,7-naphthyridin-3-yl)-2-(morpholin-2-yl) acetamide], the EC50 in assay [1] was 1620 nM; in assay [2], 8 nM; in assay [3], 6020 nM; in assay [4], 5700 nM; in assay [5], 10 nM; in assay [6], 210 nM. Further, the values for the EC50 in assay [7] and in assay [8] were 1540 nM and 845 nM, respectively.
Regarding `O=C(Nc1ncc2ccc(-c3cccnc3)cc2n1)C1CC1` [Compound 1670, N-(7-(Pyridin-3-yl)quinazolin-2-yl)cyclopropanecarboxamide], the EC50 in assay [1] was 2900 nM; in assay [2], 120 nM; in assay [3] it was 9050 nM; in assay [4], more than 10000 nM; in assay [5], 6 nM; in assay [6], 604 nM. In addition, the EC50 in assay [7] amounted to 4850 nM; in assay [8], 3710 nM. Moreover, the inhibition at 10 µM in assay [4] was 7.2%.
As to `O=C(Nc1ncc2ccc(-c3cncs3)cc2n1)C1CCN(C(=O)CN2CCCC2)CC1` [Compound 1524, 1-(2-(Pyrrolidin-1-yl)acetyl)-N-(7-(thiazol-5-yl)quinazolin-2-yl)piperidine-4-carboxamide], the EC50 in assay [1] is 3600 nM; in assay [2], 407 nM; in assay [3] it was more than 10000 nM; in assay [4], more than 10000 nM; in assay [5], 7 nM; in assay [6], more than 10000 nM. Besides, the half-maximal effective concentration (EC50) in assay [7] is 4780 nM; in assay [8], more than 10000 nM. Besides, the values for the inhibition at 10 µM in assay [3], in assay [4] and in assay [8] were 18.1%, 50% and 13.4%, respectively.
Regarding `Cn1cc(-c2ccc3cnc(NC(=O)CC4CNCCO4)nc3c2)cn1` (stereo not drawn) [Compound 994, N-(7-(1-Methyl-1H-pyrazol-4-yl)quinazolin-2-yl)-2-(morpholin-2-yl)acetamide], the concentration for a half-maximal effect (EC50) is 1300 nM in assay [1]; 776 nM in assay [2]; more than 10000 nM in assay [3]; 8310 nM in assay [4]; 15 nM in assay [5]; more than 10000 nM in assay [6]. In addition, the EC50 in assay [7] and in assay [8] was more than 10000 nM in each case. In addition, the inhibition at 10 µM amounted to 24.8% in assay [3], 0% in assay [7] and 11.5% in assay [8].
